{"source": "paper PMC9181982", "about": "“Biphenyl Ether Analogs Containing Pomalidomide as Small-Molecule Inhibitors of the Programmed Cell Death-1/Programmed Cell Death-Ligand 1 Interaction” (Molecules, 2022)", "key": {"[1]": {"target": "T1, PD-1/PD-L1 complex (Homo sapiens, UniProt Q9NZQ7)", "T1 construct": "purchased Cis-Bio", "T1 sequence (Q9NZQ7 19-238 limits assumed, one chain of several)": "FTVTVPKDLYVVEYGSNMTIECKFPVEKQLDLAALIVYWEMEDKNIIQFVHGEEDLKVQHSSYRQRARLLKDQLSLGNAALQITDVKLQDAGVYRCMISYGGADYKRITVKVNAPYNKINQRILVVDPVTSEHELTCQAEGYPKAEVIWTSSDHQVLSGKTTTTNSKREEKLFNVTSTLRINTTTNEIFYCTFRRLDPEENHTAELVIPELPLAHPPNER", "experiment": "HTRF (homogeneous time-resolved fluorescence) PD-1/PD-L1 binding assay (Cis-Bio)", "conditions": "5 nM hPD-L1, 50 nM hPD-1", "description": "To validate the activity toward PD-L1 of our compounds, we carried out an HTRF (homogeneous time-resolved fluorescence) experiment at two concentrations of the ligand (5 µM and 0.5 µM) (Table 1).\nHTRF was carried out using a certified Cis-Bio assay according to the manufacturer’s guidelines. The experiments were carried out at 5 nM of h-L1 and 50 nM of hPD-1 in the final formulation at the 20 µL final volume in the well. To determine the half maximal inhibitory concentrations (IC50) of the tested compounds, the measurements were carried out on two individual dilution series unless stated otherwise. After mixing all the components according to the Cis-Bio protocol, the plate was left for 2 h incubation at room temperature followed by the TR-FRET measurement on a Tecan Spark 20M. […] The collected data was background-subtracted from the negative control, normalized on the positive control, averaged, and fitted with the normalized Hill’s equation to determine the IC50 value using Mathematica 12 (Princeton, NJ, USA)."}, "[2]": {"target": "T2, PD-L1 protein (Homo sapiens, UniProt Q9NZQ7)", "T2 construct": "PD-L1 gene (amino acids 18–239); made in house; host or cells: E. coli BL21", "T2 sequence (Q9NZQ7 18-239)": "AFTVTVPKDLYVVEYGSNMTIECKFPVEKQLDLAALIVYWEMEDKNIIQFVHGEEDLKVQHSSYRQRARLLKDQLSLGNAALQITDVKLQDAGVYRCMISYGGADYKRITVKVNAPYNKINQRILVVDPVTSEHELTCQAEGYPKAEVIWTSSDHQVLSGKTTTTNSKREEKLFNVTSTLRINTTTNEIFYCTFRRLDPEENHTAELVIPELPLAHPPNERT", "experiment": "1H NMR binding analysis, PD-L1 protein titrated with ligand", "description": "Apart from the HTRF assay, we performed the NMR [33, 34] binding analysis by recording the ^1H spectrum of the PD-L1 protein titrated with compound 4 (Figure 1).\nThe E. coli strain BL21 was transformed with a pET-21b plasmid carrying the PD-L1 gene (amino acids 18–239). The bacteria were cultured in LB at 37 °C until OD600nm of 0, 6 when the recombinant protein production was induced with 1 mM IPTG. The protein production continued overnight. The inclusion bodies were collected by centrifugation, washed twice with 50 mM Tris HCl, pH 8.0, containing 200 mM NaCl, 10 mM EDTA, 10 mM 2-mercaptoethanol, and 0.5% Triton X-100, followed by a single wash with the same buffer but with no Triton X-100. The washed inclusion bodies were resuspended overnight in 50 mM Tris HCl, pH 8.0, 6 M GuHCl, 200 mM NaCl, and 10 mM 2-mercaptoethanol and clarified with centrifugation. Refolding of PD-L1 was performed by dropwise dilution into 0.1 M Tris HCl, pH 8.0, containing 1 M L-arginine hydrochloride, 0.25 mM oxidized glutathione, and 0.25 mM reduced glutathione. The refolded protein was dialyzed three times against 10 mM Tris HCl, pH 8.0, containing 20 mM NaCl and purified by size exclusion chromatography using Superdex 75 and a dialysis buffer. The quality of the refolded protein was evaluated by SDS-PAGE and NMR.\nNMR spectra were recorded in PBS, pH 7.4, containing 10% (v/v) of D2O added to the samples to provide the lock signal. Water suppression was carried out using the WATERGATE sequence. All the spectra were recorded at 300 K using a Bruker Avance 600 MHz spectrometer with the Cryo-Platform. The NMR spectrum was recorded at three different ligand/protein ratios from 0 to 10. The samples were prepared by adding small amounts of a 50 mM ligand stock solution in DMSO to the protein solution (0.20 mL) of the PD-L1 fragment at a concentration of 0.14 mM. The acquisition parameters for each spectrum were as follows: size of FID32768, number of scans: 32. The spectra were visualized using TopSpin 4.0.2. (Bruker, Billerica, MA, USA)"}, "[3]": {"test_system": "PD-1/PD-L1 blockade, Jurkat effector cells / CHO/TCRAct/PD-L1 cells", "experiment": "Immune checkpoint blockade (ICB) assay (Promega): Jurkat ECs co-cultured with CHO/TCRAct/PD-L1 cells, NFAT luciferase readout", "type": "cell-based, human", "conditions": "cell-based PD-1/PD-L1 blockade bioassay", "description": "In order to explore the bioactivity of the synthesized compounds, a well-recognized immune checkpoint blockade (ICB) assay was performed. In the assay, artificial T cells, the Jurkat effector cells (Jurkat ECs), i.e., the Jurkat T cells overexpressing PD-1 and luciferase-coding gene under the control of the TCR-inducible NFAT response element, are contacted with artificial antigen-presenting CHO/TCRAct/PD-L1 cells, as illustrated in [31]. The latter is the CHO cells equipped with the TCR activator molecule, which delivers activation of Jurkat ECs, and also the PD-L1 protein, which provides a negative signal towards the activation of Jurkat ECs. Upon the blockade of the PD-1/PD-L1 interaction, activation of Jurkat ECs is increased, as we have shown before for several classes of therapeutic antibodies and small molecules.\nThe human PD-L1-expressing CHO-K1 cells overexpressing TCR activator (CHO/TCRAct/PD-L1) cells and Jurkat ECs T cells overexpressing PD-1 and carrying a luciferase reporter gene under the control of the Nuclear Factor of Activated T cells Response Element (NFAT-RE) were obtained from Promega and cultured in an RPMI-1640 medium (Biowest, Nuaillé, France) supplemented with 10% fetal bovine serum (FBS, Biowest, Nuaillé, France) and […] L-glutamine (Biowest, Nuaillé, France). G418 (250 µg/mL, InvivoGen, San Diego, CA, USA) and Hygromycin B Gold (50 µg/mL, InvivoGen, San Diego, CA, USA) were also added to the culture medium as selection antibiotics. CAKI 2, LNCap, PC-3, and MDA-MB-231 cells were purchased from the European Collection of Authenticated Cell Cultures (ECACC) and cultured according to the provided protocol.\nFor the analysis of biological activity of the analyzed compounds, an immune checkpoint blockade (ICB) assay was performed. For this, the culture of Jurkat effector cells (Jurkat-ECs) and […] was carried out. The assay was performed according to the protocol described in our previous works. All the experiments were performed three times as independent experiments.\nFigure 2 Bioactivity of the indicated compounds. (A,B) The activity was monitored with a cell-based immune checkpoint blockade (ICB) assay. Jurkat ECs were contacted with pre-seeded CHO/TCRAct/PD-L1 cells in the presence of the indicated concentrations of the compounds (A) or durvalumab (B) as a positive control. The cells were co-cultured for 6 h and the luminescence signal was measured following the addition of the Bio-Glo substrate. The graphs show fold induction calculated versus either DMSO-treated (for small molecules) or untreated (for durvalumab) control (ctrl) cells. The results are mean ± SD from three independent experiments. […] (C) Analysis of the expression of PD-L1 in four human cancer cell lines compared to PD-L1-overexpressing CHO/TCRAct/PD-L1 cells. (D) Analysis of the expression of PD-L1 in MDA-MB-231 cells treated with either 4 or 5 compounds for 6 or 24 h."}}, "data": [{"smiles": "Cc1c(COc2cc(OCc3cccc(C#N)c3)c(C(NCCCNc3cccc4c3C(=O)N(C3CCC(=O)NC3=O)C4=O)c3nnnn3C(C)(C)C)cc2Cl)cccc1-c1ccc2c(c1)OCCO2", "note": "(centres unmarked) [compound 6, 3-((2-((1-(tert-butyl)-1H-tetrazol-5-yl)((3-((2-(2,6-dioxopiperidin-3-yl)-1,3-dioxoisoindolin-4-yl)amino)propyl)amino)methyl)-4-chloro-5-((3-(2,3-dihydrobenzo[b][1,4]dioxin-6-yl)-2-methylbenzyl)oxy)phenoxy)methyl)benzonitrile]", "values": [{"measurement": "inhibition at 0.5 µM", "setting": "[1]; 0.5 µM ligand, read-out: HTRF: Percentage of the Dissociated PD-1/PD-L1 Complex, 0.5 µM Ligand Conc.", "result": 13.8, "unit": "%"}, {"measurement": "inhibition at 5 µM", "setting": "[1]; 5 µM ligand, read-out: HTRF: Percentage of the Dissociated PD-1/PD-L1 Complex, 5 µM Ligand Conc.", "result": 25.9, "unit": "%"}, {"measurement": "Protein precipitation during NMR titration", "setting": "[2]; 1H NMR titration, compound 6 at protein–ligand ratio 1:10", "result": "massive protein precipitation"}, {"measurement": "Binding to PD-L1 by 1H NMR titration", "setting": "[2]; PBS pH 7.4, 300 K, protein–ligand ratios up to 1:10", "result": "does not present changes in the PD-L1 NMR protein spectra"}, {"measurement": "Promega Assay (active / not active)", "setting": "[3]", "result": "Not active"}]}]}
